{"source": "patent US7053107B2", "about": "“Indazole compounds and pharmaceutical compositions for inhibiting protein kinases, and methods for their use” (Agouron Pharmaceuticals, Inc., priority 2002, dated 2006)", "key": {"[1]": {"target": "T1, unphosphorylated VEGF-R2Δ50 (Homo sapiens, UniProt P35968, DEL940-989/E990V)", "T1 construct": "VEGF-R2Δ50 contains residues 806–939 and 990–1171; made in house; host or cells: baculovirus/insect cell system", "T1 sequence (P35968 with tags, fused parts or gaps DEL940-989/E990V limits assumed)": "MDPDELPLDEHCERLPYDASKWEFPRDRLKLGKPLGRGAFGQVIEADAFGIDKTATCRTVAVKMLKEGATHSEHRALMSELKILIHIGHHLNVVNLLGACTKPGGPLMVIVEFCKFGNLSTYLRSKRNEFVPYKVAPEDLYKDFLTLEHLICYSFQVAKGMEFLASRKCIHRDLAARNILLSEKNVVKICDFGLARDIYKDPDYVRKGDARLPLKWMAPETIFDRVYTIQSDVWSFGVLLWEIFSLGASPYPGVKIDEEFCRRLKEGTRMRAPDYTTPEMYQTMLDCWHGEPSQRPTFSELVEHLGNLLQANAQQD", "experiment": "VEGF-R2 coupled spectrophotometric assay, unphosphorylated construct (FLVK)", "assay_type": "biochemical", "conditions": "% inhibition at 50 nM compound; read-out: FLVK Ki % inh @ 50 nM", "how_it_was_run": "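Human VEGF-R2Δ50 kinase (residues 806–939/990–1171, baculovirus-expressed; autophosphorylated form pre-treated with 3 mM ATP, 4° C, 2 h), 5–40 nM, with poly(E4Y1) in 200 mM HEPES pH 7.5; ADP coupled via PK/LDH to NADH oxidation at 340 nm. Phosphorylated: 1 mM ATP, 5.1 mM poly(E4Y1), 25 mM MgCl2; unphosphorylated: 3 mM ATP, 20 mM poly(E4Y1), 60 mM MgCl2, 2 mM MnCl2. Ki from activity at varying compound levels.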"}, "FGF-R1": {"target": "T2, FGF-R1 (Homo sapiens, UniProt P11362, C488A/C584S/L457V)", "T2 construct": "starting from the endogenous methionine residue 456 to glutamate 766; made in house; host or cells: baculovirus vector expression system", "T2 sequence (P11362 456-766 L457V/C488A/C584S)": "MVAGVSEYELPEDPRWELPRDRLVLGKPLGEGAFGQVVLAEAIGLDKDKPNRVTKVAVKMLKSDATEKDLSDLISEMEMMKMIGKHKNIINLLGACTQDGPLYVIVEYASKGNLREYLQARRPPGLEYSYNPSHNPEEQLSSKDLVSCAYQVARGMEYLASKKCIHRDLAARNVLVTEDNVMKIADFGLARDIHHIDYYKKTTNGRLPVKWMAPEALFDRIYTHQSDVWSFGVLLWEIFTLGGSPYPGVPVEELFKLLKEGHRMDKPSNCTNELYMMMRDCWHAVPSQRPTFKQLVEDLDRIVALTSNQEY", "experiment": "Fibroblast Growth Factor (FGF-R) spectrophotometric assay", "assay_type": "biochemical", "conditions": "for inhibition at 1 µM: 1 μM compound, read-out: FGF-P % inhibit @1 μM", "how_it_was_run": "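Baculovirus-expressed human FGF-R1 kinase domain (Met456–Glu766; L457V/C488A/C584S), 50 nM, with 2 mM ATP and 15 mM poly(E4Y1) in HEPES pH 7.5. ADP formation coupled via PK/LDH to NADH oxidation, read as A340 decrease. Ki from activity across varying compound concentrations.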"}, "PDGFRβ": {"target": "T3, PDGFRβ (Homo sapiens, UniProt P09619)", "T3 construct": "expressed in transfected cells; host or cells: porcine aorta endothelial (PAE) cells", "T3 sequence (P09619 33-1106)": "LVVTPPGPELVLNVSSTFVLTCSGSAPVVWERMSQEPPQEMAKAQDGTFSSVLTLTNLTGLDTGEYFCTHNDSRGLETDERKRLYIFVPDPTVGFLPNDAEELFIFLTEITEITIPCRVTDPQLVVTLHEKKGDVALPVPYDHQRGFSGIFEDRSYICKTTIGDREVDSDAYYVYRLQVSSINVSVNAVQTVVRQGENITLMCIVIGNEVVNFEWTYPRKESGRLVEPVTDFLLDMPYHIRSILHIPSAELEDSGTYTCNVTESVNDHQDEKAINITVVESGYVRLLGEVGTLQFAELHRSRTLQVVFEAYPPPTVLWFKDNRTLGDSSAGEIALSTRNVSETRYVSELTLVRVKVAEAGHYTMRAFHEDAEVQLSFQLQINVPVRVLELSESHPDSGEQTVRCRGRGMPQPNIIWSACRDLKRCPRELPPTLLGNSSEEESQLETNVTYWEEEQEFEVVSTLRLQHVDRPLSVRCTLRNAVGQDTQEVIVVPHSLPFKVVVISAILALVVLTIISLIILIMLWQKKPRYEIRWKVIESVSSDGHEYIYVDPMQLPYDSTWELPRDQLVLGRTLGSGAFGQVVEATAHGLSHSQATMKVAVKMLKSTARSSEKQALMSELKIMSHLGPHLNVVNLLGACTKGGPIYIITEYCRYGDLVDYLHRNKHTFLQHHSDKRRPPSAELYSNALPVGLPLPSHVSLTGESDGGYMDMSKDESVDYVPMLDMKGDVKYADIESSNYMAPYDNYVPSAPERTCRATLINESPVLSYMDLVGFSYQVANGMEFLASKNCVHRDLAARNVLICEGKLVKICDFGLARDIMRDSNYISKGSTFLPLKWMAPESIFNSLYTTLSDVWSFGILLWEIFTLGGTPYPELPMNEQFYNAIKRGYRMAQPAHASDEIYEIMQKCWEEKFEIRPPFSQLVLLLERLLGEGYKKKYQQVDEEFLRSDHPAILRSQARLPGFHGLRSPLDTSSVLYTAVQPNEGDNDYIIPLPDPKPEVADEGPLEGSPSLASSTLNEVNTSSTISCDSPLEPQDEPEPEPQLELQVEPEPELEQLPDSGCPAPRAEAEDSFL", "experiment": "PAE-PDGFRβ Phosphorylation in PAE-PDGFRB Cells Assay", "assay_type": "cell-based", "conditions": "PAE cells overexpressing human PDGFRβ; read-out: PAE PDGFR autophos IC50", "how_it_was_run": "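PAE cells overexpressing human PDGFRβ, serum-starved 16 h (0.1% FBS), compound 1 h at 37° C (0.5% DMSO), then 1 μg/mL PDGF-BB with 2 mM Na3VO4 for 8 min. Receptor captured by anti-PDGFRβ, phosphotyrosine detected by HRP-PY20/TMB at 450 nm; IC50 by four-parameter fit.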"}}}
{"molecule": "Cc1ccnc(/C=C/c2n[nH]c3cc(Nc4ccccc4C(=O)NC4CC4)ccc23)c1", "note": "[Example 2(h), N-Cyclopropyl-2-{3-[(E)-2-(4-methyl-pyridin-2-yl)-vinyl]-1H-indazol-6-ylamino}-benzamide]", "values": [{"measurement": "inhibition at 0.05 µM", "setting": "[1]", "result": 84, "unit": "%"}, {"measurement": "inhibition at 1 µM", "setting": "FGF-R1", "result": 75, "unit": "%"}, {"measurement": "IC50", "setting": "PDGFRβ", "result": 2.8, "unit": "nM"}]}
{"molecule": "O=C(NC1CC1)c1ccccc1Nc1ccc2c(/C=C/c3ccccn3)n[nH]c2c1", "note": "[Example 3(d), N-Cyclopropyl-2-[3-((E)-2-pyridin-2-yl-vinyl)-1H-indazol-6-ylamino]-benzamide]", "values": [{"measurement": "inhibition at 0.05 µM", "setting": "[1]", "result": 89, "unit": "%"}, {"measurement": "inhibition at 1 µM", "setting": "FGF-R1", "result": 80, "unit": "%"}, {"measurement": "IC50", "setting": "PDGFRβ", "result": 3.5, "unit": "nM"}]}
{"molecule": "COc1ccccc1CNC(=O)c1ccccc1Nc1ccc2c(/C=C/c3ccccn3)n[nH]c2c1", "note": "[Example 3(h), N-(2-Methoxy-benzyl)-2-[3-((E)-2-pyridin-2-yl-vinyl)-1H-indazol-6-ylamino]-benzamide]", "values": [{"measurement": "inhibition at 0.05 µM", "setting": "[1]", "result": 96, "unit": "%"}, {"measurement": "inhibition at 1 µM", "setting": "FGF-R1", "result": 85, "unit": "%"}, {"measurement": "IC50", "setting": "PDGFRβ", "result": 0.63, "unit": "nM"}]}
{"molecule": "O=C(NC1CCC1)c1ccccc1Nc1ccc2c(/C=C/c3ccccn3)n[nH]c2c1", "note": "[Example 3(j), N-Cyclobutyl-2-[3-((E)-2-pyridin-2-yl-vinyl)-1H-indazol-6-ylamino]-benzamide]", "values": [{"measurement": "inhibition at 0.05 µM", "setting": "[1]", "result": 80, "unit": "%"}, {"measurement": "inhibition at 1 µM", "setting": "FGF-R1", "result": 43, "unit": "%"}, {"measurement": "IC50", "setting": "PDGFRβ", "result": 4.7, "unit": "nM"}]}
{"molecule": "C=C(C)CNC(=O)c1ccccc1Nc1ccc2c(/C=C/c3ccccn3)n[nH]c2c1", "note": "[Example 3(k), N-(2-Methyl-allyl)-2-[3-((E)-2-pyridin-2-yl-vinyl)-1H-indazol-6-ylamino]-benzamide]", "values": [{"measurement": "inhibition at 0.05 µM", "setting": "[1]", "result": 74, "unit": "%"}, {"measurement": "inhibition at 1 µM", "setting": "FGF-R1", "result": 36, "unit": "%"}, {"measurement": "IC50", "setting": "PDGFRβ", "result": 5, "unit": "nM"}]}
{"molecule": "Cc1cc(C)nc(/C=C/c2n[nH]c3cc(Nc4ccccc4C(=O)NCC#CCO)ccc23)c1", "note": "[Example 10, 2-{3-[(E)-2-(4,6-Dimethyl-pyridin-2-yl)-vinyl]-1H-indazol-6-ylamino}-N-(4-hydroxy-but-2-ynyl)-benzamide]", "values": [{"measurement": "inhibition at 0.05 µM", "setting": "[1]", "result": 76, "unit": "%"}, {"measurement": "inhibition at 1 µM", "setting": "FGF-R1", "result": 38, "unit": "%"}, {"measurement": "Ki", "setting": "FGF-R1; second value in the FGF-P cell, Ki", "result": 197, "unit": "nM"}, {"measurement": "IC50", "setting": "PDGFRβ", "result": 21, "unit": "nM"}]}
{"molecule": "C#CCNC(=O)c1ccccc1Nc1ccc2c(/C=C/c3cc(C)ccn3)n[nH]c2c1", "note": "[Example 32, 2-{3-[(E)-2-(4-Methyl-pyridin-2-yl)-vinyl]-1H-indazol-6-ylamino}-N-prop-2-ynyl-benzamide]", "values": [{"measurement": "inhibition at 0.05 µM", "setting": "[1]", "result": 78, "unit": "%"}, {"measurement": "inhibition at 1 µM", "setting": "FGF-R1", "result": 70, "unit": "%"}, {"measurement": "IC50", "setting": "PDGFRβ", "result": 0.5, "unit": "nM"}]}
{"molecule": "O=C(NCC#CCO)c1ccccc1Nc1ccc2c(/C=C/c3ccccn3)n[nH]c2c1", "note": "[Example 64, N-(4-Hydroxy-but-2-ynyl)-2-[3-(2-pyridin-2-yl-vinyl)-1H-indazol-6-ylamino]-benzamide]", "values": [{"measurement": "inhibition at 0.05 µM", "setting": "[1]", "result": 94, "unit": "%"}, {"measurement": "inhibition at 1 µM", "setting": "FGF-R1", "result": 39, "unit": "%"}, {"measurement": "IC50", "setting": "PDGFRβ", "result": 5.5, "unit": "nM"}]}
